Test results taken from patent publication US8148392B2, “2-indolyl imidazo [4,5-d] phenanthroline derivatives and their use in the treatment of cancer” (Lorus Therapeutics Inc., priority 2005, dated 2012).
Where two headings read alike, the source gives them in different places. Values belong to the compound of their own block, whether it stands above or below them.

What was measured:
[1] = system: human colon carcinoma HT-29 cells; experiment: XTT cell proliferation assay, HT-29; type: cell-based
In short: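 HT-29 cells in McCoy's 5A with 10% FBS, 37° C., 5% CO2, exposed to varying compound concentrations for 6-7 days. Viable cells quantified by XTT reduction to formazan; growth inhibition expressed as IC50 (μM).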

[2] = system: HCT-116 colon cancer cells; experiment: XTT cell proliferation assay, HCT-116; type: cell-based, human; details: read-out: IC50 (cell growth inhibition)
Description: (§1) Cell growth inhibition IC50 (μM) by compounds of Formula I was tested on various cancer cell types by XTT cell proliferation assay. The growth inhibitory effects of the compounds of Formula I as shown below for the melanoma cell line SK-MEL-2 were reproducible by Lorus Therapeutics Inc.

H-460 lung cancer cells = experiment: XTT cell proliferation assay, H-460; type: cell-based, human; details: read-out: IC50 (cell growth inhibition)
Description: as §1

[3] = system: DU-145 prostate cancer cells; experiment: XTT cell proliferation assay, DU-145; type: cell-based, human; details: read-out: IC50 (cell growth inhibition)
Description: as §1

[4] = system: PC-3 prostate cancer cells; experiment: XTT cell proliferation assay, PC-3; type: cell-based, human; details: read-out: IC50 (cell growth inhibition)
Description: as §1

[5] = system: MDA-MB-231 breast cancer cells; experiment: XTT cell proliferation assay, MDA-MB-231; type: cell-based, human; details: read-out: IC50 (cell growth inhibition)
Description: as §1

[6] = system: MDA-MB-435 breast cancer cells; experiment: XTT cell proliferation assay, MDA-MB-435; type: cell-based, human; details: read-out: IC50 (cell growth inhibition)
Description: as §1

CCRF-CEM leukemia cells = experiment: XTT cell proliferation assay, CCRF-CEM; type: cell-based, human; details: read-out: IC50 (cell growth inhibition)
Description: as §1

MOLT-4 leukemia cells = experiment: XTT cell proliferation assay, MOLT-4; type: cell-based, human; details: read-out: IC50 (cell growth inhibition)
Description: as §1

SK-MEL-2 melanoma cells = experiment: XTT cell proliferation assay, SK-MEL-2; type: cell-based, human; details: read-out: IC50 (cell growth inhibition)
Description: as §1

KLF4 [7] = experiment: KLF4 gene expression by RT-PCR, HT-29; type: cell-based, human; details: HT-29, relative to vehicle control as 1
Description: (§2) To determine whether compounds of Formula I can chelate zinc in cells, the effect of compound 3 on the expression level of a zinc-regulated gene, metallothionein 1A (MT1A), in human colon carcinoma HT-29 cells, was determined. HT-29 cells, 1×10^6 cells in 10 mL volume of the growth medium were seeded in 100 mm dishes and incubated overnight at 37° C. The medium was removed and replaced with the growth medium containing 35 μM ZnCl2, 1 μM or 4 μM TPEN (NNNN-tetrakis(2-pyridyl-methyl)ethylenediamine), or 1 μM or 4 μM compound 3, or 0.1% DMSO vehicle control. After incubation for 16 hours, the cells were detached by trypsinization, collected by centrifugation and washed once with PBS. Total RNA was extracted by using TRIZOL (Invitrogen, Life Technologies, Carlsbad, Calif.), following manufacturer's instruction, and the level of MT1A mRNA was measured by real time PCR using the comparative CT method as follows. First strand cDNA was synthesized from 200 ng total RNA in Biometra Tpersonal Thermal Cycler (Abgene, UK), using pd(N)6 random hexamer (Amersham Biosciences, Piscataway, N.J.) and SuperScript™ II Reverse Transcriptase kit (Invitrogen) by following manufacturer's protocol. Real-time PCR was performed in ABI Prism 7000 Sequence Detection System (Applied Biosystems Inc., ABI, Foster City, Calif.), using 5 μL of cDNA synthesized by above-mentioned procedure and respective TaqMan® Gene Expression Assays (ABI) by following ABI TaqMan® Universal PCR master mix protocol.
The ability of compounds of Formula I to modulate the mRNA level of a transition metal-regulated tumour suppressor gene was determined in vitro as follows. Compound 3 was tested to determine its ability to increase the expression of zinc-regulated tumour suppressor KLF4 mRNA in colon carcinoma HT-29 cells. […] HT-29 cells were incubated for 16 hours with DMSO as a vehicle control, 35 μM ZnCl2, 1 μM or 4 μM of compound 3, or 1 μM or 4 μM TPEN for 16 hours and mRNA was extracted from the cells as described in Example 19. The expression of KLF4 mRNA was analyzed by real-time polymerase chain reaction using the comparative CT method also as described in Example 19. Compound 3 induced the expression of KLF4 mRNA (approximately 8-fold) in HT-29 cells compared with HT-29 cells treated with vehicle alone (See FIG. 8).
(§3) Gene expression levels of KLF4, induced by compounds of Formula I, were also examined on various cancer cell types by RT-PCR. Fold changes in KLF4 in compound-treated cells were expressed relative to KLF4 expression in vehicle control-treated cells of respective cell type as “1”. […] Additionally, xenografts of MDA-MB-435 implanted into mammary fat pads of female SCID mice have shown immunohistochemical staining consistent with melanocytic origin (Ellison G, Klinowska T, Westwood R F, Docter E, French T, Fox J C. (2002) Mol Pathol. 55(5): 294-299). The breast cancer cell line MDA-MB-435 may be expected to function differently than the other breast cancer cell lines.
The change in gene expression of KLF4 upon zinc depletion following compound 3 treatment was determined by RT-PCR as follows. HT-29 cells were treated with 1 μM compound 3 for the indicated time (FIG. 39A) or HT-29 cells were treated with 1 μM compound 3, 35 μM ZnCl2 or compund 3 and ZnCl2 together for 16 hr (FIG. 39B). Total RNA was extracted and gene expression level was determined by RT-PCR.
Fold change in KLF4 gene expression was presented relative to KLF4 expression in non-specific siRNA-transfected cells treated with vehicle control.

KLF4 [8] = experiment: KLF4 gene expression by RT-PCR, HCT-116; type: cell-based, human; details: HCT-116, relative to vehicle control as 1
Excerpt: as §3

KLF4 [9] = experiment: KLF4 gene expression by RT-PCR, H-460; type: cell-based, human; details: H-460, relative to vehicle control as 1
Excerpt: as §3
Expressions of KLF2, 4 and 6 genes in H-460 cells, treated with vehicle control or 2.5 μM compound 3 or compound 7, were measured by RT-PCR. Gene expression was presented relative to respective gene expression in vehicle control-treated group as “1”.

KLF4 [10] = experiment: KLF4 gene expression by RT-PCR, DU-145; type: cell-based, human; details: DU-145, relative to vehicle control as 1
Excerpt: as §3

KLF4 [11] = experiment: KLF4 gene expression by RT-PCR, PC-3; type: cell-based, human; details: PC-3, relative to vehicle control as 1
Excerpt: as §3

KLF4 [12] = experiment: KLF4 gene expression by RT-PCR, MDA-MB-231; type: cell-based, human; details: MDA-MB-231, relative to vehicle control as 1
Excerpt: as §3

KLF4 [13] = experiment: KLF4 gene expression by RT-PCR, MDA-MB-435; type: cell-based, human; details: MDA-MB-435, relative to vehicle control as 1
Excerpt: as §3

KLF4 [14] = experiment: KLF4 gene expression by RT-PCR, CCRF-CEM; type: cell-based, human; details: relative to vehicle control as 1
Excerpt: as §3

KLF4 [15] = experiment: KLF4 gene expression by RT-PCR, MOLT-4; type: cell-based, human; details: MOLT-4, relative to vehicle control as 1
Excerpt: as §3

KLF4 [16] = experiment: KLF4 gene expression by RT-PCR, SK-MEL-2; type: cell-based, human; details: SK-MEL-2, relative to vehicle control as 1
Excerpt: as §3

[17] = system: metallothionein 1A (MT1A); experiment: Metallothionein 1A (MT1A) mRNA expression in HT-29 cells, real time PCR; type: cell-based, human; details: HT-29, versus DMSO control, in words
Description: as §2
The effect of compound 3 and compound 7 treatment on the expressions of a zinc-storage protein meallothionein 1A (MT1A) (FIG. 29A), a copper transporter, Ctrl also known as SLC31A1 (FIG. 29B) and an iron transporter; transferrin receptor 1 (TfR1) (FIG. 29C) were measured and compared with a known zinc chelator TPEN, a copper chelator tetramine and an iron chelator DFO, respectively. Despite in vitro chelation of Cu^+2, increase in copper-sensitive gene after compound 3 treatment was transient.
HT-29 cells were treated with 1 μM compound 3 for the indicated time and MT1A gene expression was measured as follows. Total RNA was extracted using TRIZOL method and gene expression level was determined by quantitative reverse-transcription polymerase chain reaction (RT-PCR). MT1A gene expression was normalized with β-actin gene expression in the same sample. Fold change in MT1A was expressed relative to MT1A level of DMSO control at respective time points.
To verify that the MT1A gene expression reflected the intracellular zinc level, HT-29 cells were treated with 1 μM compound 3, 35 μM ZnCl2 or compound 3 and ZnCl2 together for 16 hr (FIG. 38B). MT1A gene expression was determined by RT-PCR as described above. MT1A gene expression was elevated in response to increased intracellular zinc ions in ZnCl2-treated cells.
The ability of compounds of Formula I to modulate gene expression of MT1A (FIG. 55A), MTF-1 (FIG. 55B), Cyclin D1 (FIG. 55C) and KLF4 (FIG. 55D) was determined by RT-PCR. HT-29 cells were treated with 1 μM compound 3 or compound 7, 35 μM ZnCl2, compound 3 and ZnCl2 together, or compound 7 and ZnCl2 together for 8 to 16 hr. The respective gene expression was normalized with β-actin gene expression in the same sample. Fold change in gene expression was expressed relative to the respective gene level of DMSO control.
The effect of compound 3 and compound 64 on gene expression changes in MT1A (FIG. 57A), MTF-1 (FIG. 57B), Cyclin D1 (FIG. 57C) and KLF4 (FIG. 57D) in HT-29 cells was determined by RT-PCR. HT-29 cells were treated with 1 μM compound 3 or compound 64, 35 μM ZnCl2, compound 3 and ZnCl2 together, or compound 64 and ZnCl2 together for 8 to 16 hr. The respective gene expression was normalized with β-actin gene expression in the same sample. Fold change in gene expression was expressed relative to the respective gene level of DMSO control.

[18] = system: intracellular zinc ions in HT-29 cells; experiment: Chelation of intracellular zinc in HT-29 cells, Zinquin fluorescence; type: cell-based, human; details: HT-29 with or without pre-loading with 35 μM ZnCl2, 30 min
Description: To determine the chelation property of compound 3 with intracellular zinc ions, HT-29 cells, with or without pre-loaded with 35 μM ZnCl2 were treated with compound 3, a known zinc chelator TPEN or vehicle control (DMSO), and intracellular free zinc was determined by measuring Zinquin fluorescence as described in the preceding Example (FIG. 37). HT-29 cells (4×10^5 cells/group) were pre-treated with 35 μM ZnCl2 for 20 min, followed by addition of indicated concentrations of compound 3 or TPEN and 10 μM Zinquin for 30 min at 37° C., and the fluorescence count was measured (FIG. 37A). For measurement of chelation of endogenous zinc ions in HT-29 cells, HT-29 cells (1.5×10^6 cells/group) were treated with indicated concentrations of compound 3 and 10 μM Zinquin for 30 min at 37° C., and the fluorescence count was measured (FIG. 37B).

IC50 ([1]; HT-29, XTT, as Example 13, Table 7): 0.2 µg/mL
IC50 ([1]; HT-29 colon, Table 8, read-out: IC50 (cell growth inhibition)): 200 nM
IC50 [2]: 160 nM
IC50 (H-460 lung cancer cells): 400 nM
IC50 [3]: 400 nM
IC50 [4]: 340 nM
IC50 [5]: 3300 nM
IC50 [6]: 600 nM
IC50 (CCRF-CEM leukemia cells): 200 nM
IC50 (MOLT-4 leukemia cells): 200 nM
IC50 (SK-MEL-2 melanoma cells): 180 nM
SMILES: Cc1ccc2[nH]c(C34CC5CC(CC(C5)C3)C4)c(-c3nc4c5cccnc5c5ncccc5c4[nH]3)c2c1 [Compound 69]
KLF4 (gene fold increase) (KLF4 [7]): 6.54 fold
KLF4 (gene fold increase) (KLF4 [8]): 3.11 fold
KLF4 (gene fold increase) (KLF4 [9]): 1.95 fold
KLF4 (gene fold increase) (KLF4 [10]): 7.46 fold
KLF4 (gene fold increase) (KLF4 [11]): 0.95 fold
KLF4 (gene fold increase) (KLF4 [12]): 1.61 fold
KLF4 (gene fold increase) (KLF4 [13]): 8.91 fold
KLF4 (gene fold increase) (KLF4 [14]): 74.29 fold
KLF4 (gene fold increase) (KLF4 [15]): 276.28 fold
KLF4 (gene fold increase) (KLF4 [16]): 4 fold

SMILES: c1ccc(CN(CCN(Cc2ccccn2)Cc2ccccn2)Cc2ccccn2)nc1 [TPEN, NNNN-tetrakis(2-pyridyl-methyl)ethylenediamine, reference compound]
MT1A gene expression, change [17]: decreased the expression of MT1A
intracellular free zinc (Zinquin fluorescence) [18]: Dose-dependent decrease in both pre-loaded zinc and endogenous zinc levels
